The results in this text go back to patent publication US20240285785A1, “TARGETING SORTILIN” (priority 2022, published 2024).

A short description of the first data set: Murine serum stability assay. Format: in vitro ADME, mouse (CD-1). Conditions: male CD-1 mouse serum, 37° C.; listed as Aro-SAR-Q15. The method, then:
Serum was drawn from male CD-1 mice by Pharmidex. Lyophilized peptides were solubilized in DMSO and then further diluted into male mouse (CD-1) serum at 37° C. in duplicates. The reaction was incubated at 37° C. and samples extracted at 6 time points: 0, 0.16, 0.5, 1, 3, and 6 hrs. Acetonitrile (ACN) with internal standard (tolbutamide) was added to stop the incubation. Samples were centrifuged, and the supernatant was analyzed by HPLC-MS/MS for the parent compound.
With `CC(C)C[C@H](NC(=O)[C@H](C)NC(=O)[C@@H]1CCCN1C(=O)[C@H](CC(=O)O)NC(=O)[C@H](CCCNC(=N)N)NC(=O)[C@H](CC(C)C)NC(=O)[C@@H]1CCCN1C(=O)[C@H](C)NC(=O)[C@H](CC(=O)O)NC(=O)[C@H](Cc1c[nH]c2ccccc12)NC(=O)[C@H](CCCNC(=N)N)NC(=O)[C@@H]1CCCN1C(=O)[C@H](C)N)C(=O)N[C@@H](CCCNC(=N)N)C(=O)N[C@@H](CCC(N)=O)C(=O)N[C@H](C(=O)N[C@@H](CC1CCC1)C(=O)O)C(C)(C)C` [Arb-SAR-Q15], the “Murine serum stability assay, T1/2” value is on record as 18.92 min.

The same data set, now with this note: male, CD-1, mouse, mouse serum, male CD-1 mouse serum, 37° C.; read-out: Murine serum stability assay, T1/2.
Consider `CC(C)C[C@H](NC(=O)[C@H](C)NC(=O)[C@@H]1CCCN1C(=O)[C@H](CC(=O)O)NC(=O)[C@H](CCCNC(=N)N)NC(=O)[C@H](CC(C)C)NC(=O)[C@@H]1CCCN1C(=O)[C@H](C)NC(=O)[C@H](CC(=O)O)NC(=O)[C@H](Cc1c[nH]c2ccccc12)NC(=O)[C@H](CCCNC(=N)N)NC(=O)[C@@H]1CCCN1C(=O)[C@H](C)N)C(=O)N[C@@H](CCCNC(=N)N)C(=O)N[C@@H](CCC(N)=O)C(=O)N[C@@H](CC(C)C)C(=O)N[C@@H](CC(C)(C)C)C(=O)O` [Arb-SAR-J05], for which the half-life amounted to 10.1 min.
As for `CC(C)C[C@H](NC(=O)[C@H](CC(C)(C)C)NC(=O)[C@H](CCC(N)=O)NC(=O)[C@H](CCCNC(=N)N)NC(=O)[C@H](CC(C)C)NC(=O)[C@H](C)NC(=O)[C@@H]1CCCN1C(=O)[C@H](CC(=O)O)NC(=O)[C@H](CCCNC(=N)N)NC(=O)[C@H](CC(C)C)NC(=O)[C@@H]1CCCN1C(=O)[C@H](C)NC(=O)[C@H](CC(=O)O)NC(=O)[C@H](Cc1c[nH]c2ccccc12)NC(=O)[C@H](CCCNC(=N)N)NC(=O)[C@@H]1CCCN1C(=O)[C@H](C)N)C(=O)O` [Arb-SAR-J21], the half-life came to 11 min.
Same read-out and setting: as for `CC(C)CC[C@H](NC(=O)[C@H](CCCNC(=N)N)NC(=O)[C@H](CC(C)C)NC(=O)[C@H](C)NC(=O)[C@@H]1CCCN1C(=O)[C@H](CC(=O)O)NC(=O)[C@H](CCCNC(=N)N)NC(=O)[C@H](CC(C)C)NC(=O)[C@@H]1CCCN1C(=O)[C@H](C)NC(=O)[C@H](CC(=O)O)NC(=O)[C@H](Cc1c[nH]c2ccccc12)NC(=O)[C@H](CCCNC(=N)N)NC(=O)[C@@H]1CCCN1C(=O)[C@H](C)N)C(=O)N[C@@H](CC(C)C)C(=O)N[C@@H](CC(C)C)C(=O)O` [Arb-SAR-K01], the figure is 13.8 min; as for `CC(C)C[C@H](NC(=O)[C@H](CC(C)C)NC(=O)[C@H](CCO)NC(=O)[C@H](CCCNC(=N)N)NC(=O)[C@H](CC(C)C)NC(=O)[C@H](C)NC(=O)[C@@H]1CCCN1C(=O)[C@H](CC(=O)O)NC(=O)[C@H](CCCNC(=N)N)NC(=O)[C@H](CC(C)C)NC(=O)[C@@H]1CCCN1C(=O)[C@H](C)NC(=O)[C@H](CC(=O)O)NC(=O)[C@H](Cc1c[nH]c2ccccc12)NC(=O)[C@H](CCCNC(=N)N)NC(=O)[C@@H]1CCCN1C(=O)[C@H](C)N)C(=O)O` [Arb-SAR-K3], 11.2 min.
Still for that read-out and setting: with `CC(C)CC[C@H](NC(=O)[C@H](CCC(C)C)NC(=O)[C@H](CCC(N)=O)NC(=O)[C@H](CCCNC(=N)N)NC(=O)[C@H](CC(C)C)NC(=O)[C@H](C)NC(=O)[C@@H]1CCCN1C(=O)[C@H](CC(=O)O)NC(=O)[C@H](CCCNC(=N)N)NC(=O)[C@H](CC(C)C)NC(=O)[C@@H]1CCCN1C(=O)[C@H](C)NC(=O)[C@H](CC(=O)O)NC(=O)[C@H](Cc1c[nH]c2ccccc12)NC(=O)[C@H](CCCNC(=N)N)NC(=O)[C@@H]1CCCN1C(=O)[C@H](C)N)C(=O)O` [Arb-SAR-N22] the figure was 16.7 min; with `CC(C)C[C@H](NC(=O)[C@H](C)NC(=O)[C@@H]1CCCN1C(=O)[C@H](CC(=O)O)NC(=O)[C@H](CCCNC(=N)N)NC(=O)[C@H](CC(C)C)NC(=O)[C@@H]1CCCN1C(=O)[C@H](C)NC(=O)[C@H](CC(=O)O)NC(=O)[C@H](Cc1c[nH]c2ccccc12)NC(=O)[C@H](CCCNC(=N)N)NC(=O)[C@@H]1CCCN1C(=O)[C@H](C)N)C(=O)N[C@@H](CCCNC(=N)N)C(=O)N[C@@H](CCC(N)=O)C(=O)N[C@@H](Cc1ccccc1)C(=O)N[C@@H](CC(C)(C)C)C(=O)O` [Arb-SAR-P15], 9.79 min.
On the same count and under the same terms, with `CC(C)CC[C@H](NC(=O)[C@H](CCC(N)=O)NC(=O)[C@H](CCCNC(=N)N)NC(=O)[C@H](CC(C)C)NC(=O)[C@H](C)NC(=O)[C@@H]1CCCN1C(=O)[C@H](CC(=O)O)NC(=O)[C@H](CCCNC(=N)N)NC(=O)[C@H](CC(C)C)NC(=O)[C@@H]1CCCN1C(=O)[C@H](C)NC(=O)[C@H](CC(=O)O)NC(=O)[C@H](Cc1c[nH]c2ccccc12)NC(=O)[C@H](CCCNC(=N)N)NC(=O)[C@@H]1CCCN1C(=O)[C@H](C)N)C(=O)N[C@@H](CC(C)(C)C)C(=O)O` [Arb-SAR-P17] the figure was 12.8 min.
As for `CCCC[C@H](NC(=O)[C@H](CCC(N)=O)NC(=O)[C@H](CCCNC(=N)N)NC(=O)[C@H](CC(C)C)NC(=O)[C@H](C)NC(=O)[C@@H]1CCCN1C(=O)[C@H](CC(=O)O)NC(=O)[C@H](CCCNC(=N)N)NC(=O)[C@H](CC(C)C)NC(=O)[C@@H]1CCCN1C(=O)[C@H](C)NC(=O)[C@H](CC(=O)O)NC(=O)[C@H](Cc1c[nH]c2ccccc12)NC(=O)[C@H](CCCNC(=N)N)NC(=O)[C@@H]1CCCN1C(=O)[C@H](C)N)C(=O)N[C@@H](CC(C)(C)C)C(=O)O` [Arb-SAR-P19], the half-life was found to be 11.8 min.
On the same count and under the same terms, as for `CC(C)C[C@H](NC(=O)[C@H](C)NC(=O)[C@@H]1CCCN1C(=O)[C@H](CC(=O)O)NC(=O)[C@H](CCCNC(=N)N)NC(=O)[C@H](CC(C)C)NC(=O)[C@@H]1CCCN1C(=O)[C@H](C)NC(=O)[C@H](CC(=O)O)NC(=O)[C@H](Cc1c[nH]c2ccccc12)NC(=O)[C@H](CCCNC(=N)N)NC(=O)[C@@H]1CCCN1C(=O)[C@H](C)N)C(=O)N[C@@H](CCCNC(=N)N)C(=O)N[C@@H](CCC(N)=O)C(=O)N[C@@H](CC1CC1)C(=O)N[C@@H](CC(C)(C)C)C(=O)O` [Arb-SAR-P21], the figure is 9.33 min; as for `CC(C)C[C@H](NC(=O)[C@H](C)NC(=O)[C@@H]1CCCN1C(=O)[C@H](CC(=O)O)NC(=O)[C@H](CCCNC(=N)N)NC(=O)[C@H](CC(C)C)NC(=O)[C@@H]1CCCN1C(=O)[C@H](C)NC(=O)[C@H](CC(=O)O)NC(=O)[C@H](Cc1c[nH]c2ccccc12)NC(=O)[C@H](CCCNC(=N)N)NC(=O)[C@@H]1CCCN1C(=O)[C@H](C)N)C(=O)N[C@@H](CCCNC(=N)N)C(=O)N[C@@H](CCC(N)=O)C(=O)N[C@@H](CC(C)(C)C)C(=O)N[C@@H](CC(C)(C)C)C(=O)O` [Arb-SAR-P22], 9.96 min; as for `CC(C)C[C@H](NC(=O)[C@H](C)NC(=O)[C@@H]1CCCN1C(=O)[C@H](CC(=O)O)NC(=O)[C@H](CCCNC(=N)N)NC(=O)[C@H](CC(C)C)NC(=O)[C@@H]1CCCN1C(=O)[C@H](C)NC(=O)[C@H](CC(=O)O)NC(=O)[C@H](Cc1c[nH]c2ccccc12)NC(=O)[C@H](CCCNC(=N)N)NC(=O)[C@@H]1CCCN1C(=O)[C@H](C)N)C(=O)N[C@@H](CCCNC(=N)N)C(=O)N[C@@H](CCC(N)=O)C(=O)N[C@H](C(=O)N[C@@H](CC(C)(C)C)C(=O)O)C(C)(C)C` [Arb-SAR-P23], 12.7 min.
Still for that read-out and setting: with `CC(C)C[C@H](NC(=O)[C@H](C)NC(=O)[C@@H]1CCCN1C(=O)[C@H](CC(=O)O)NC(=O)[C@H](CCCNC(=N)N)NC(=O)[C@H](CC(C)C)NC(=O)[C@@H]1CCCN1C(=O)[C@H](C)NC(=O)[C@H](CC(=O)O)NC(=O)[C@H](Cc1c[nH]c2ccccc12)NC(=O)[C@H](CCCNC(=N)N)NC(=O)[C@@H]1CCCN1C(=O)[C@H](C)N)C(=O)N[C@@H](CCCNC(=N)N)C(=O)N[C@@H](CCC(N)=O)C(=O)N[C@@H](CC1CCC1)C(=O)N[C@@H](CC(C)(C)C)C(=O)O` [Arb-SAR-P24] the figure was 10.1 min; with `CC(C)C[C@H](NC(=O)[C@H](C)NC(=O)[C@@H]1CCCN1C(=O)[C@H](CC(=O)O)NC(=O)[C@H](CCCNC(=N)N)NC(=O)[C@H](CC(C)C)NC(=O)[C@@H]1CCCN1C(=O)[C@H](C)NC(=O)[C@H](CC(=O)O)NC(=O)[C@H](Cc1c[nH]c2ccccc12)NC(=O)[C@H](CCCNC(=N)N)NC(=O)[C@@H]1CCCN1C(=O)[C@H](C)N)C(=O)N[C@@H](CCCNC(=N)N)C(=O)N[C@@H](CCC(N)=O)C(=O)N[C@@H](Cc1ccccc1)C(=O)N[C@@H](CC1CCC1)C(=O)O` [Arb-SAR-Q7], 7.73 min.
The same measure, in the same setting: with `CC(C)CC[C@H](NC(=O)[C@H](CCC(N)=O)NC(=O)[C@H](CCCNC(=N)N)NC(=O)[C@H](CC(C)C)NC(=O)[C@H](C)NC(=O)[C@@H]1CCCN1C(=O)[C@H](CC(=O)O)NC(=O)[C@H](CCCNC(=N)N)NC(=O)[C@H](CC(C)C)NC(=O)[C@@H]1CCCN1C(=O)[C@H](C)NC(=O)[C@H](CC(=O)O)NC(=O)[C@H](Cc1c[nH]c2ccccc12)NC(=O)[C@H](CCCNC(=N)N)NC(=O)[C@@H]1CCCN1C(=O)[C@H](C)N)C(=O)N[C@@H](CC1CCC1)C(=O)O` [Arb-SAR-Q09] the figure was 11.4 min; with `CC(C)C[C@H](NC(=O)[C@H](C)NC(=O)[C@@H]1CCCN1C(=O)[C@H](CC(=O)O)NC(=O)[C@H](CCCNC(=N)N)NC(=O)[C@H](CC(C)C)NC(=O)[C@@H]1CCCN1C(=O)[C@H](C)NC(=O)[C@H](CC(=O)O)NC(=O)[C@H](Cc1c[nH]c2ccccc12)NC(=O)[C@H](CCCNC(=N)N)NC(=O)[C@@H]1CCCN1C(=O)[C@H](C)N)C(=O)N[C@@H](CCCNC(=N)N)C(=O)N[C@@H](CCC(N)=O)C(=O)N[C@@H](CC1CC1)C(=O)N[C@@H](CC1CCC1)C(=O)O` [Arb-SAR-Q13], 14.1 min; with `CC(C)C[C@H](NC(=O)[C@H](C)NC(=O)[C@@H]1CCCN1C(=O)[C@H](CC(=O)O)NC(=O)[C@H](CCCNC(=N)N)NC(=O)[C@H](CC(C)C)NC(=O)[C@@H]1CCCN1C(=O)[C@H](C)NC(=O)[C@H](CC(=O)O)NC(=O)[C@H](Cc1c[nH]c2ccccc12)NC(=O)[C@H](CCCNC(=N)N)NC(=O)[C@@H]1CCCN1C(=O)[C@H](C)N)C(=O)N[C@@H](CCCNC(=N)N)C(=O)N[C@@H](CCC(N)=O)C(=O)N[C@H](C(=O)N[C@@H](CC1CCC1)C(=O)O)C(C)(C)C` [Arb-SAR-Q15], 16.9 min.

The same data set, now with this note: male, CD-1, mouse, serum, 37° C., read-out: Murine serum stability assay, T1/2.
`CC(C)C[C@H](NC(=O)[C@H](CC(C)C)NC(=O)[C@H](CCC(N)=O)NC(=O)[C@H](CCCNC(=N)N)NC(=O)[C@H](CC(C)C)NC(=O)[C@H](C)NC(=O)[C@@H]1CCCN1C(=O)[C@H](Cc1ccccc1)NC(=O)[C@H](CCCNC(=N)N)NC(=O)[C@H](CC(C)C)NC(=O)[C@@H]1CCCN1C(=O)[C@H](C)NC(=O)[C@H](CC(=O)O)NC(=O)[C@H](Cc1c[nH]c2ccccc12)NC(=O)[C@H](CCCNC(=N)N)NC(=O)[C@@H]1CCCN1C(=O)[C@H](C)N)C(=O)O` [Arb-SAR-C14]: the half-life came out at 7.91 min.
